The values below come from patent publication US20130158075A1, “HETEROCYCLIC COMPOUNDS AS DGAT1 INHIBITORS” (PIRAMAL ENTERPRISES LIMITED, priority 2010, published 2013).

Each structure is given as a SMILES string.

As a reminder, the inhibition is the percentage by which the read-out fell short of the control.

For one assay, the target named is T1, hDGAT1 (Homo sapiens, UniProt O75907).
T1 construct: made in house; host or cells: Sf9 insect cells (baculovirus); microsomal fraction
T1 sequence (O75907 1-488): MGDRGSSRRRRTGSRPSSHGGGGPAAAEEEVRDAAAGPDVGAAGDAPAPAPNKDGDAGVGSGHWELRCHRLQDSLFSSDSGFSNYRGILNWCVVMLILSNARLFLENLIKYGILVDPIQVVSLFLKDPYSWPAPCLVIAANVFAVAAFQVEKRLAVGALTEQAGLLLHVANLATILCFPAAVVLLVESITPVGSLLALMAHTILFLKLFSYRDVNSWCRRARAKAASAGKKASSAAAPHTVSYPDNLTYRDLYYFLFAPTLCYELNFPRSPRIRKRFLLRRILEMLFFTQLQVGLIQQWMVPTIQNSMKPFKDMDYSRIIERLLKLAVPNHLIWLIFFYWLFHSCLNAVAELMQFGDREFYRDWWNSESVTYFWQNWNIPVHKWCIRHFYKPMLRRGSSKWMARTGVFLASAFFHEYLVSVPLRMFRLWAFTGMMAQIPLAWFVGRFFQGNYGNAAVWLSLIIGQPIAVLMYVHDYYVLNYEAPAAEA
The assay can be described thus: In-vitro DGAT1 assay with hDGAT1 microsomes from Sf9 cells (14C oleoyl CoA, scintillation counting). The class given is biochemical. The conditions noted are these: at 1 μM. In short, it runs like this: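 Microsomes from Sf9 cells infected with hDGAT1 baculovirus (MOI 5, harvested ~66-72 h) were incubated with [14C]oleoyl-CoA and 1,2-dioleoyl-sn-glycerol at 37 °C for 10 min, in duplicate. After alkaline ethanol stop, triglycerides were heptane-extracted and counted by liquid scintillation; percent inhibition was plotted against compound concentration (nM).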
On to `O=C(O)CC1CCC(c2ncc(-c3ccc(NC(=O)c4nc(-c5ccccc5)oc4C(F)(F)F)cc3)s2)CC1` (stereo not drawn) [Example 370, 2-(4-(5-(4-(2-Phenyl-5-(trifluoromethyl)oxazole-4-carboxamido)phenyl)thiazol-2-VI)cyclohexyl)acetic acid], for which the “Percentage inhibition of hDGAT1” value is “++ (>50 % Inhibition)”.
On the same count and under the same terms, next, `CC(=O)NC(=O)CC1CCC(c2ncc(-c3ccc(NC(=O)c4c(F)cccc4F)cc3)s2)CC1` (stereo not drawn) [Example 403, N-(4-(2-(4-(2-Acetamido-2-oxoethyl)cyclohexyl)thiazol-5-yl)phenyl)-2,6-difluoro benzamide]: “+ (20-50% Inhibition)”; `CC(C)(O)CC1CCC(c2ncc(-c3ccc(NC(=O)Nc4cc(F)c(F)cc4F)cc3)s2)CC1` (stereo not drawn) [Example 409]: “++ (>50 % Inhibition)”.

Staying with this assay, now noted: read-out: Percentage inhibition of hDGAT1.
As to `Cc1oc(-c2ccccc2)nc1C(=O)Nc1ccc(-c2cnc(C3CCC(CC(=O)O)CC3)s2)cc1` (stereo not drawn) [Example 372, 2-(4-(5-(4-(5-Methyl-2-phenyloxazole-4-carboxamido)phenyl)thiazol-2-yl)cyclohexyl)acetic acid], the inhibition at 1 µM is over 50%.
On the same count and under the same terms, next, `O=C(O)CC1CCC(c2ncc(-c3ccc(NC(=S)Nc4ccccc4F)cc3)s2)CC1` (stereo not drawn) [Example 374, 2-(4-(5-(4-(3-(2-Fluorophenyl)thioureido)phenyl)thiazol-2-yl)cyclohexyl)acetic acid]: over 50%; `Cc1nnc(CC2CCC(c3ncc(-c4ccc(NC(=O)Nc5ccc(F)cc5F)cc4)s3)CC2)o1` (stereo not drawn) [Example 379, 1-(2,4-Difluorophenyl)-3-(4-(2-(4-((5-methyl-1,3,4-oxadiazol-2-yl)methyl)cyclohexyl)thiazol-5-yl)phenyl)urea]: over 50%.
The same measure, in the same setting: next, `Cc1nnc(CC2CCC(c3ncc(-c4ccc(NC(=O)Nc5ccccc5Cl)cc4)s3)CC2)o1` (stereo not drawn) [Example 380, 1-(2-Chlorophenyl)-3-(4-(2-(4-((5-methyl-1,3,4-oxadiazol-2-yl)methyl)cyclohexyl)thiazol-5-yl)phenyl)urea]: 20 to 50%; `Cc1nnc(CC2CCC(c3ncc(-c4ccc(NC(=O)Nc5cc(F)cc(F)c5)cc4)s3)CC2)o1` (stereo not drawn) [Example 381, 1-(3,5-Difluorophenyl)-3-(4-(2-(4-((5-methyl-1,3,4-oxadiazol-2-yl)methyl)cyclohexyl)thiazol-5-yl)phenyl)urea]: over 50%; `Cc1nnc(CC2CCC(c3ncc(-c4ccc(NC(=O)Nc5cc(F)c(F)cc5F)cc4)s3)CC2)o1` (stereo not drawn) [Example 382, 1-(4-(2-(4-((5-Methyl-1,3,4-oxadiazol-2-yl)methyl)cyclohexyl)thiazol-5-yl)phenyl)-3-(2,4,5-trifluorophenyl)urea]: over 50%.
Same read-out and setting: in the case of `Cc1nnc(CC2CCC(c3ncc(-c4ccc(NC(=O)Nc5c(F)cc(F)cc5F)cc4)s3)CC2)o1` (stereo not drawn) [Example 383, 1-(4-(2-(4-((5-Methyl-1,3,4-oxadiazol-2-yl)methyl)cyclohexyl)thiazol-5-yl)phenyl)-3-(2,4,6-trifluorophenyl)urea] it was over 50%.
`Cc1nnc(CC2CCC(c3ncc(-c4ccc(NC(=O)c5c(F)cccc5F)cc4)s3)CC2)o1` (stereo not drawn) [Example 385, 2,6-Difluoro-N-(4-(2-(4-((5-methyl-1,3,4-oxadiazol-2-yl)methyl)cyclohexyl)thiazol-5-yl)phenyl)benzamide]: the inhibition at 1 µM was 20 to 50%.
The same measure, in the same setting: next, `Cc1noc(CC2CCC(c3ncc(-c4ccc(NC(=O)Nc5ccccc5Cl)cc4)s3)CC2)n1` (stereo not drawn) [Example 390, 1-(2-Chlorophenyl)-3-(4-(2-(4-((3-methyl-1,2,4-oxadiazol-5-yl)methyl)cyclohexyl)thiazol-5-yl)phenyl)urea]: over 50%; `Cc1noc(CC2CCC(c3ncc(-c4ccc(NC(=O)Nc5ccccc5F)cc4)s3)CC2)n1` (stereo not drawn) [Example 391, 1-(2-Fluorophenyl)-3-(4-(2-(4-((3-methyl-1,2,4-oxadiazol-5-yl)methyl)cyclohexyl)thiazol-5-yl)phenyl)urea]: over 50%.
Still for that read-out and setting: next, `Cc1noc(CC2CCC(c3ncc(-c4ccc(NC(=O)Nc5cc(F)cc(F)c5)cc4)s3)CC2)n1` (stereo not drawn) [Example 392, 1-(3,5-Difluorophenyl)-3-(4-(2-(4-((3-methyl-1,2,4-oxadiazol-5-yl)methyl)cyclohexyl)thiazol-5-yl)phenyl)urea]: over 50%.
On the same count and under the same terms, in the case of `Cc1noc(CC2CCC(c3ncc(-c4ccc(NC(=O)Nc5cc(F)c(F)cc5F)cc4)s3)CC2)n1` (stereo not drawn) [Example 393, 1-(4-(2-(4-((3-Methyl-1,2,4-oxadiazol-5-yl)methyl)cyclohexyl)thiazol-5-yl)phenyl)-3-(2,4,5-trifluorophenyl)urea] it was over 50%; in that of `Cc1noc(CC2CCC(c3ncc(-c4ccc(NC(=O)Nc5ccc(F)cc5F)cc4)s3)CC2)n1` (stereo not drawn) [Example 394, 1-(2,4-Difluorophenyl)-3-(4-(2-(4-((3-methyl-1,2,4-oxadiazol-5-yl)methyl)cyclohexyl)thiazol-5-yl)phenyl)urea], over 50%; in that of `Cc1noc(CC2CCC(c3ncc(-c4ccc(NC(=O)c5c(F)cccc5F)cc4)s3)CC2)n1` (stereo not drawn) [Example 396, 2,6-Difluoro-N-(4-(2-(4-((3-methyl-1,2,4-oxadiazol-5-yl)methyl)cyclohexyl)thiazol-5-yl)phenyl)benzamide], 20 to 50%.
Consider `CC(=O)NC(=O)CC1CCC(c2ncc(-c3ccc(NC(=O)Nc4ccccc4Cl)cc3)s2)CC1` (stereo not drawn) [Example 400, N-Acetyl-2-(4-(5-(4-(3-(2-chlorophenyl)ureido)phenyl)thiazol-2-yl)cyclohexyl)acetamide], for which the inhibition at 1 µM was over 50%.
On the same count and under the same terms, next, `CC(=O)NC(=O)CC1CCC(c2ncc(-c3ccc(NC(=O)Nc4ccc(F)cc4F)cc3)s2)CC1` (stereo not drawn) [Example 401, N-Acetyl-2-(4-(5-(4-(3-(2,4-difluorophenyl)ureido)phenyl)thiazol-2-yl)cyclohexyl)acetamide]: over 50%; `CC(=O)NC(=O)CC1CCC(c2ncc(-c3ccc(NC(=O)Nc4cc(F)c(F)cc4F)cc3)s2)CC1` (stereo not drawn) [Example 402, N-Acetyl-2-(4-(5-(4-(3-(2,4,5-trifluorophenyl)ureido)phenyl)thiazol-2-yl)cyclohexyl)acetamide]: over 50%.
Same read-out and setting: next, `CC(C)(O)C1CCC(c2ncc(-c3ccc(NC(=O)Nc4ccccc4Cl)cc3)s2)CC1` (stereo not drawn) [Example 404, 1-(2-Chlorophenyl)-3-(4-(2-(4-(2-hydroxypropan-2-yl)cyclohexyl)thiazol-5-yl)phenyl)urea]: over 50%; `CC(C)(O)C1CCC(c2ncc(-c3ccc(NC(=O)Nc4cc(F)cc(F)c4)cc3)s2)CC1` (stereo not drawn) [Example 405, 1-(3,5-Difluorophenyl)-3-(4-(2-(4-(2-hydroxypropan-2-yl)cyclohexyl)thiazol-5-yl)phenyl)urea]: over 50%.
Same read-out and setting: next, `CC(C)(O)C1CCC(c2ncc(-c3ccc(NC(=O)Nc4ccc(F)cc4F)cc3)s2)CC1` (stereo not drawn) [Example 406, 1-(2,4-Difluorophenyl)-3-(4-(2-(4-(2-hydroxypropan-2-yl)cyclohexyl)thiazol-5-yl)phenyl)urea]: over 50%; `CC(C)(O)CC1CCC(c2ncc(-c3ccc(NC(=O)Nc4ccc(F)cc4F)cc3)s2)CC1` (stereo not drawn) [Example 407, 1-(2,4-Difluorophenyl)-3-(4-(2-(4-(2-hydroxy-2-methylpropyl)cyclohexyl)thiazol-5-yl)phenyl)urea]: over 50%; `CC(C)(O)CC1CCC(c2ncc(-c3ccc(NC(=O)Nc4cc(F)cc(F)c4)cc3)s2)CC1` (stereo not drawn) [Example 408, 1-(3,5-Difluorophenyl)-3-(4-(2-(4-(2-hydroxy-2-methylpropyl)cyclohexyl)thiazol-5-yl)phenyl)urea]: over 50%.
For the compound `NNC(=O)CC1CCC(c2ncc(-c3ccc(NC(=O)Nc4cc(F)cc(F)c4)cc3)s2)CC1` (stereo not drawn) [Example 410, 1-(3,5-Difluorophenyl)-3-(4-(2-(4-(2-hydrazinyl-2-oxoethyl)cyclohexyl)thiazol-5-yl)phenyl)urea], the inhibition at 1 µM was over 50%.
On the same count and under the same terms, next, `Cc1nnc(CC2CCC(c3ncc(-c4ccc(N)cc4)s3)CC2)s1` (stereo not drawn) [Example 413, 4-(2-(4-((5-Methyl-1,3,4-thiadiazol-2-yl)methyl)cyclohexyl)thiazol-5-yl)aniline]: over 50%; `Cc1nnc(CC2CCC(c3ncc(-c4ccc(NC(=O)Nc5cc(F)c(F)cc5F)cc4)s3)CC2)s1` (stereo not drawn) [Example 414, 1-(4-(2-(4-((5-Methyl-1,3,4-thiadiazol-2-yl)methyl)cyclohexyl)thiazol-5-yl)phenyl)-3-(2,4,5-trifluorophenyl)urea]: over 50%; `O=C(O)CN1CCC(c2ncc(-c3ccc(NC(=O)Nc4ccccc4Cl)cc3)s2)CC1` [Example 429, 2-(4-(5-(4-(3-(2-Chlorophenyl)ureido)phenyl)thiazol-2-yl)piperidin-1-yl)acetic acid]: over 50%.
On the same count and under the same terms, in the case of `O=C(O)CN1CCC(c2ncc(-c3ccc(NC(=O)Nc4ccccc4F)cc3)s2)CC1` [Example 431, 2-(4-(5-(4-(3-(2-Fluorophenyl)ureido)phenyl)thiazol-2-yl)piperidin-1-yl)acetic acid] it was over 50%.
